# Measurements from patent publication EP4656640A1, “IRAK4 DEGRADER AND USE THEREOF” (Shanghai Qilu Pharmaceutical Research and Development …, priority 2023, dated 2024).
# Read-outs that look alike come from different tables or passages of the source.
# Tests used:
# IRAK4 [1] = target: T1, IRAK4 (Homo sapiens, UniProt Q9NWZ3); assay: Degradation of IRAK4 in SU-DHL-2 cells (flow cytometry); assay type: cell-based; parameters: The degradation level of IRAK4 protein in SU-DHL-2 cell line by the compounds was detected by flow cytometry; endogenous in cells; host or cells: SU-DHL-2; OCI-LY3
# T1 sequence (Q9NWZ3 1-460): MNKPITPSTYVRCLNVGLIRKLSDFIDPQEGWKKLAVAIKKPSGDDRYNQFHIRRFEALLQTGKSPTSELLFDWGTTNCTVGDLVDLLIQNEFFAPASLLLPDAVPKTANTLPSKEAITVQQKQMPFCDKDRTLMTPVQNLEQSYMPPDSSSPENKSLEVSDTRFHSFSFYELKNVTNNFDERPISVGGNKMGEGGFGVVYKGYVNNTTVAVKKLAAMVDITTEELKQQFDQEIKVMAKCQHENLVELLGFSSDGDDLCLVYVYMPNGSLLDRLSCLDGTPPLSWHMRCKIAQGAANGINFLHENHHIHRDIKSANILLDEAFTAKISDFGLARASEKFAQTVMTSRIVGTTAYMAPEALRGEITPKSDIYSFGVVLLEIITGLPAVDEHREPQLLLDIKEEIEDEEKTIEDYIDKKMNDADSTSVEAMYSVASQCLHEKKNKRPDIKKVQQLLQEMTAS
# Experimental: The degradation level of IRAK4 protein in SU-DHL-2 cell line by the compounds was detected by flow cytometry.
# Step 2: On day 1, the cells were seeded at a density of 2 × 10^5 cells per well in 100 µL in a 96-well plate. The compounds were dissolved in DMSO to a final concentration of 10 mM, and then diluted with culture medium at a 1:5 concentration gradient to prepare 10 concentrations. The diluted solutions were added to the cells to obtain a maximum final concentration of 2 µM. Wells containing cells treated with 0.1% DMSO served as the […] The cells were incubated at 37°C in a 5% CO2 incubator for 24 hours.
# Step 3: After centrifugation, the cells were washed with FACS buffer. The cells were stained for viability discrimination using the LIVE/DEAD™ Fixable Blue Dead Cell Stain Kit, and surface staining of monocytes was performed with PE Mouse Anti-Human CD14, followed by incubation at 4°C for 30 minutes.
# Step 4: After centrifugation, the cells were washed with FACS buffer. Fix buffer I, equal in volume to the cultured cells, was added, and the cells were fixed at 37°C for 10 minutes.
# Step 5: After centrifugation, the cells were washed with FACS buffer. 150 µL of Perm III reagent was added, and the cells were incubated at 4°C for 30 minutes to permeabilize the membranes. After centrifugation, the cells were washed with FACS buffer.
# Flow cytometry analysis was performed using a flow cytometer.
# The flow cytometry data were analyzed using Flowjo software. Data presentation and DC50 (half-maximal degradation concentration) calculation were performed using Prism 8.0.2 (GraphPad).
# IRAK4 [2] = target: T1, IRAK4; assay type: cell-based; parameters: endogenous in cells; host or cells: OCI-LY3; details: read-out: OCI-LY3 DC50; OCI-LY3 cells
# [3] = Mouse pharmacokinetics, oral (Experiment 1); assay type: in vivo, C57BL/6 mice; details: mice, PO 100 mg/kg, fasted overnight, plasma
# Experimental: C57BL/6 mice were used as test animals to study the pharmacokinetic behavior of the compounds of the present disclosure in mouse plasma after oral administration at a dose of 100 mg/kg.
# C57BL/6, male, transferred from the animal repository of the laboratory institution (999M-018).
# Three male C57BL/6 mice were fasted overnight (10-14 hours) with free access to water one day before administration. The mice were fed 4 hours after administration. The dose for PO administration was 100 mg/kg, with an administration volume of 20 mL/kg.
# After administration, blood samples (0.03 mL) were collected from the mice via venipuncture at 0.083, 0.25, 0.5, 1, 2, 4, 8, and 24 hours. The samples were placed in EDTA-K2 tubes and centrifuged at 6800 rpm for 5 minutes at 2-8°C. The plasma was separated and stored at -80°C.
# • 1) 10 µL of plasma sample was added to 200 µL of methanol for precipitation. After mixing, the mixture was centrifuged at 18000 g for 10 minutes. • 2) The processed supernatant solution was taken for LC/MS/MS analysis to determine the concentration of the test compound.
# • Liquid phase conditions: Shimadzu LC-30AD pump • Mass spectrometry conditions: AB Sciex API 5500 mass spectrometer • Chromatographic column: Phenomenex Kinetex 2.6 µm C18 50 3.0 mm • Mobile phase: Solution A was 0.1% formic acid in water, and solution B was 0.1% formic acid in acetonitrile • Flow rate: 0.6 mL/min • Elution time: Gradient elution for 0-1.6 minutes.
# The main pharmacokinetic parameters were calculated using WinNonlin 8.0.
# TNFα secretion = assay: Inhibition of induced TNFα secretion in human PBMCs (CBA); assay type: cell-based; details: PBMC
# Experimental: (§1) The effect of PROTAC small molecules on inflammatory factors in PBMCs downstream of IRAK4 induced by TLR and IL-1 was detected based on the CBA (cytometric bead array) method.
# (§2) Step 2: The density of PBMCs was adjusted to 1 E6/mL, and 150 µL of PBMCs in 1640 complete medium were seeded into a 96-well plate, followed by incubation at 37°C for 1 hour.
# (§3) Step 3: 50 µL of serially diluted small molecule (working concentration: 10000 nM, 1:3 dilution) drugs were inoculated into the plate in a 37°C incubator for 8 hours.
# (§4) Step 4: 10 µL of stimulants were added respectively, with final concentrations of 100 ng/mL for LPS, 1 µg/mL for R848, and 100 ng/mL for IL-1β.
# (§5) Step 5: CBA assay. The concentrations of IL-6 and TNF-α in the cell culture supernatant were determined using Hu IL-6 CBA Flex Set A7 and Hu TNF- CBA Flex Set D9.
# (§6) Step 6: Standard samples were prepared: 2500 pg/mL, 1250 pg/mL,...0. A 1:2 serial dilution was performed to obtain 10 concentrations.
# (§7) Step 7: The mixed capture beads were resuspended in capture bead diluent (1:50), and cell culture supernatant (50 µL) was added, followed by incubation at room temperature for 10 minutes.
# (§8) Step 8: The detection reagent prepared with detection diluent was added, and the mixture was incubated in the dark at room temperature for 3 hours. At the end of incubation, the samples were washed once with wash buffer and resuspended for detection.
# (§9) The concentrations of IL-6 and TNFα were calculated using the standard curve method. Data presentation and IC50 calculation were performed using Prism 8.0.2.
# IL-6 secretion = assay: Inhibition of induced IL-6 secretion in human PBMCs (CBA); assay type: cell-based; details: PBMC
# Experimental: as §1, §2, §3, §4, §5, §6, §7, §8, §9
# [4] = Dog pharmacokinetics, oral gavage (Experiment 3); assay type: in vivo; details: Beagle dogs, oral gavage 2.5 mg/kg, plasma
# Experimental: Healthy Beagle dogs, male, weighing about 8-10 kg, 3 animals per group.
# The animals were not fasted and had free access to water.
# Venous blood (0.5-0.8 mL) was collected at 15 minutes, 30 minutes, 1 hour, 2 hours, 4 hours, 8 hours, and 24 hours after oral gavage administration, placed in K2EDTA tubes, and centrifuged at 4°C to separate plasma. The concentration of the compound in plasma was determined by liquid chromatography-tandem mass spectrometry.
# The main pharmacokinetic parameters were calculated using WinNonlin. […] Table 8. Pharmacokinetic parameters of some compounds of the present disclosure administered orally to dogs
# [5] = read-out: SU-DHL-2 DC50; SU-DHL-2 cells, 24 hours incubation
# [6] = SU-DHL-2 cells, 24 hours incubation; read-out: SU-DHL-2 DC50
# [7] = IL-1β 100 ng/mL, read-out: IC50, TNFα secretion induced by IL-1β
# [8] = LPS 100 ng/mL, read-out: IC50, TNFα secretion induced by LPS
# [9] = R848 1 µg/mL, read-out: IC50, TNFα secretion induced by R848
# [10] = IL-1β 100 ng/mL, read-out: IC50 of compounds against induced secretion, IL-6, IL-1β
# [11] = LPS 100 ng/mL, read-out: IC50 of compounds against induced secretion, IL-6, LPS
# [12] = R848 1 µg/mL, read-out: IC50 of compounds against induced secretion, IL-6, R848
smiles,measurement,setting,value
Cn1c(=O)n(C2CCC(=O)NC2=O)c2cccc(C#CCOCC3(C(=O)N4CCC5(CC4)CC(n4cc(NC(=O)c6cnn7ccc(N8C[C@H]9C[C@@H]8CO9)nc67)c(C(F)F)n4)C5)CC3)c21 (stereo partly shown) [Example 7],DC50,IRAK4 [1]; [5],12 nM
same,DC50,IRAK4 [2],10 nM
Cn1c(=O)n(C2CCC(=O)NC2=O)c2cccc(C#CCOCCC(=O)N3CCC4(CC3)CC(n3cc(NC(=O)c5cnn6ccc(N7C[C@H]8C[C@@H]7CO8)nc56)c(C(F)F)n3)C4)c21 (stereo partly shown) [Example 8],DC50,IRAK4 [1]; [5],4 nM
same,DC50,IRAK4 [2],2 nM
Cn1c(=O)n(C2CCC(=O)NC2=O)c2cccc(C#CCOCC3CC(N4CCC5(CC4)CC(n4cc(NC(=O)c6cnn7ccc(N8C[C@H]9C[C@@H]8CO9)nc67)c(C(F)F)n4)C5)C3)c21 (stereo partly shown) [Example 9],DC50,IRAK4 [1]; [6],2.7 nM
same,DC50,IRAK4 [2],2.3 nM
Cn1c(=O)n(C2CCC(=O)NC2=O)c2cccc(C#CCOC(C)(C)C(=O)N3CCC4(CC3)CC(n3cc(NC(=O)c5cnn6ccc(N7C[C@H]8C[C@@H]7CO8)nc56)c(C(F)F)n3)C4)c21 (stereo partly shown) [Example 10],DC50,IRAK4 [1]; [5],17 nM
same,DC50,IRAK4 [2],13 nM
Cn1c(=O)n(C2CCC(=O)NC2=O)c2cccc(C#CCOCC(=O)N3CCC4(CC3)CC(n3cc(NC(=O)c5cnn6ccc(N7C[C@H]8C[C@@H]7CO8)nc56)c(C(F)F)n3)C4)c21 (stereo partly shown) [Example 12],DC50,IRAK4 [1]; [5],5 nM
same,DC50,IRAK4 [2],5 nM
Cn1c(=O)n(C2CCC(=O)NC2=O)c2cccc(C#CCOC3CCN(C(=O)N4CCC5(CC4)CC(n4cc(NC(=O)c6cnn7ccc(N8C[C@H]9C[C@@H]8CO9)nc67)c(C(F)F)n4)C5)CC3)c21 (stereo partly shown) [Example 13],AUC(0-inf),[3],19.2 µg·h/mL
same,AUC(0-t) at 24 h,[3],16.3 µg·h/mL
same,Cmax,[3],2.16 µg/mL
same,MRT inf,[3],10.9 h
same,Tmax,[3],1 h
same,half-life,[3],7.6 h
same,IC50,TNFα secretion; [7],13 nM
same,IC50,TNFα secretion; [8],22.3 nM
same,IC50,TNFα secretion; [9],20 nM
same,IC50,IL-6 secretion; [10],13.2 nM
same,IC50,IL-6 secretion; [11],19.7 nM
same,IC50,IL-6 secretion; [12],10 nM
same,AUC(0-t) at 24 h,[4],0.521 µg·h/mL
same,Cmax,[4],0.102 µg/mL
same,MRT inf,[4],4.5 h
same,half-life,[4],2.1 h
Cn1c(=O)n(C2CCC(=O)NC2=O)c2cccc(C#CCCCCN3CCC4(CC3)CC(n3cc(NC(=O)c5cnn6ccc(N7C[C@H]8C[C@@H]7CO8)nc56)c(C(F)F)n3)C4)c21 (stereo partly shown) [Example 15],DC50,IRAK4 [1]; [6],5 nM
same,DC50,IRAK4 [2],1.5 nM
Cn1c(=O)n(C2CCC(=O)NC2=O)c2cccc(C#CCCCN3CCC4(CC3)CC(n3cc(NC(=O)c5cnn6ccc(N7C[C@H]8C[C@@H]7CO8)nc56)c(C(F)F)n3)C4)c21 (stereo partly shown) [Example 17],DC50,IRAK4 [1]; [6],1 nM
same,DC50,IRAK4 [2],1 nM
Cn1c(=O)n(C2CCC(=O)NC2=O)c2cccc(C#CCCC(=O)N3CCC4(CC3)CC(n3cc(NC(=O)c5cnn6ccc(N7C[C@H]8C[C@@H]7CO8)nc56)c(C(F)F)n3)C4)c21 (stereo partly shown) [Example 24],DC50,IRAK4 [1]; [6],4 nM
same,DC50,IRAK4 [2],3 nM
Cn1c(=O)n(C2CCC(=O)NC2=O)c2cccc(C#CCO[C@H]3C[C@H](CN4CCC5(CC4)CC(n4cc(NC(=O)c6cnn7ccc(N8C[C@H]9C[C@@H]8CO9)nc67)c(C(F)F)n4)C5)C3)c21 (stereo partly shown) [Example 29],DC50,IRAK4 [1]; [5],3 nM
same,DC50,IRAK4 [2],1 nM
Cn1c(=O)n(C2CCC(=O)NC2=O)c2cccc(C#CCO[C@H]3C[C@@H](CN4CCC5(CC4)CC(n4cc(NC(=O)c6cnn7ccc(N8C[C@H]9C[C@@H]8CO9)nc67)c(C(F)F)n4)C5)C3)c21 (stereo partly shown) [Example 30],DC50,IRAK4 [1]; [5],3 nM
same,DC50,IRAK4 [2],1 nM
Cn1c(=O)n(C2CCC(=O)NC2=O)c2cccc(C#CCO[C@H]3CC[C@H](CN4CCC5(CC4)CC(n4cc(NC(=O)c6cnn7ccc(N8C[C@H]9C[C@@H]8CO9)nc67)c(C(F)F)n4)C5)CC3)c21 (stereo partly shown) [Example 31],AUC(0-inf),[3],5.46 µg·h/mL
same,AUC(0-t) at 24 h,[3],4.89 µg·h/mL
same,Cmax,[3],0.364 µg/mL
same,MRT inf,[3],10.4 h
same,Tmax,[3],3.3 h
same,half-life,[3],7.3 h
same,IC50,TNFα secretion; [7],2.1 nM
same,IC50,TNFα secretion; [8],7.7 nM
same,IC50,TNFα secretion; [9],8.2 nM
same,IC50,IL-6 secretion; [10],9.3 nM
same,IC50,IL-6 secretion; [11],4.6 nM
same,IC50,IL-6 secretion; [12],0.9 nM
same,AUC(0-t) at 24 h,[4],0.198 µg·h/mL
same,Cmax,[4],0.015 µg/mL
same,MRT inf,[4],12 h
same,half-life,[4],8 h
